Data: the NIST ThermoML archive (doi:10.1016/j.jct.2011.08.016)

Assay: xn = mol fraction of the nth substance listed
Settings: Liquid, Vibrating tube method

CCCCCCCCCC [decane] + CCCCCCCC
Settings	mass density [kg/m3]
343.11 K, 1000 kPa, x2 = 0.0616	691.23
343.11 K, 2000 kPa, x2 = 0.0616	692.25
343.11 K, 3000 kPa, x2 = 0.0616	693.27
343.11 K, 4000 kPa, x2 = 0.0616	694.28
343.11 K, 5000 kPa, x2 = 0.0616	695.27
343.11 K, 6000 kPa, x2 = 0.0616	696.28
343.11 K, 7000 kPa, x2 = 0.0616	697.25
343.11 K, 8000 kPa, x2 = 0.0616	698.24
343.11 K, 9000 kPa, x2 = 0.0616	699.21
343.11 K, 10000 kPa, x2 = 0.0616	700.15
343.11 K, 10990 kPa, x2 = 0.0616	701.09
343.11 K, 12000 kPa, x2 = 0.0616	702.04
343.11 K, 13000 kPa, x2 = 0.0616	702.94
343.11 K, 14000 kPa, x2 = 0.0616	703.83
343.11 K, 15000 kPa, x2 = 0.0616	704.71
343.11 K, 16000 kPa, x2 = 0.0616	705.59
343.11 K, 17000 kPa, x2 = 0.0616	706.44
343.11 K, 18000 kPa, x2 = 0.0616	707.29
343.11 K, 19000 kPa, x2 = 0.0616	708.13
343.11 K, 20000 kPa, x2 = 0.0616	708.97
343.11 K, 21000 kPa, x2 = 0.0616	709.77
343.11 K, 22000 kPa, x2 = 0.0616	710.54
343.11 K, 23000 kPa, x2 = 0.0616	711.34
343.11 K, 24000 kPa, x2 = 0.0616	712.11
343.11 K, 25000 kPa, x2 = 0.0616	712.86
343.12 K, 1000 kPa, x2 = 0.2801	686
343.12 K, 1000 kPa, x2 = 0.5314	678.98
343.12 K, 1000 kPa, x2 = 0.7736	671.23
343.12 K, 2000 kPa, x2 = 0.2801	686.96
343.12 K, 2000 kPa, x2 = 0.5314	680.05
343.12 K, 2000 kPa, x2 = 0.7736	672.36
343.12 K, 3000 kPa, x2 = 0.2801	688
343.12 K, 3000 kPa, x2 = 0.5314	681.13
343.12 K, 3000 kPa, x2 = 0.7736	673.44
343.12 K, 4000 kPa, x2 = 0.2801	689.01
343.12 K, 4000 kPa, x2 = 0.5314	682.2
343.12 K, 4000 kPa, x2 = 0.7736	674.54
343.12 K, 5000 kPa, x2 = 0.2801	690.04
343.12 K, 5000 kPa, x2 = 0.5314	683.26
343.12 K, 5000 kPa, x2 = 0.7736	675.64
343.12 K, 6000 kPa, x2 = 0.2801	691.09
343.12 K, 6000 kPa, x2 = 0.5314	684.32
343.12 K, 6000 kPa, x2 = 0.7736	676.76
343.12 K, 7000 kPa, x2 = 0.2801	692.03
343.12 K, 7000 kPa, x2 = 0.5314	685.36
343.12 K, 7000 kPa, x2 = 0.7736	677.83
343.12 K, 8000 kPa, x2 = 0.2801	693.02
343.12 K, 8000 kPa, x2 = 0.5314	686.38
343.12 K, 8000 kPa, x2 = 0.7736	678.88
343.12 K, 9000 kPa, x2 = 0.2801	694
343.12 K, 9000 kPa, x2 = 0.5314	687.39
343.12 K, 9000 kPa, x2 = 0.7736	679.92
343.12 K, 10000 kPa, x2 = 0.2801	694.95
343.12 K, 10000 kPa, x2 = 0.5314	688.38
343.12 K, 10000 kPa, x2 = 0.7736	680.93
343.12 K, 10990 kPa, x2 = 0.2801	695.95
343.12 K, 10990 kPa, x2 = 0.5314	689.37
343.12 K, 10990 kPa, x2 = 0.7736	681.98
343.12 K, 12000 kPa, x2 = 0.2801	696.9
343.12 K, 12000 kPa, x2 = 0.5314	690.34
343.12 K, 12000 kPa, x2 = 0.7736	682.98
343.12 K, 13000 kPa, x2 = 0.2801	697.84
343.12 K, 13000 kPa, x2 = 0.5314	691.29
343.12 K, 13000 kPa, x2 = 0.7736	683.94
343.12 K, 14000 kPa, x2 = 0.2801	698.78
343.12 K, 14000 kPa, x2 = 0.5314	692.24
343.12 K, 14000 kPa, x2 = 0.7736	684.91
343.12 K, 15000 kPa, x2 = 0.2801	699.72
343.12 K, 15000 kPa, x2 = 0.5314	693.17
343.12 K, 15000 kPa, x2 = 0.7736	685.89
343.12 K, 16000 kPa, x2 = 0.2801	700.6
343.12 K, 16000 kPa, x2 = 0.5314	694.09
343.12 K, 16000 kPa, x2 = 0.7736	686.84
343.12 K, 17000 kPa, x2 = 0.2801	701.51
343.12 K, 17000 kPa, x2 = 0.5314	695
343.12 K, 17000 kPa, x2 = 0.7736	687.8
343.12 K, 18000 kPa, x2 = 0.2801	702.35
343.12 K, 18000 kPa, x2 = 0.5314	695.89
343.12 K, 18000 kPa, x2 = 0.7736	688.72
343.12 K, 19000 kPa, x2 = 0.2801	703.17
343.12 K, 19000 kPa, x2 = 0.5314	696.76
343.12 K, 19000 kPa, x2 = 0.7736	689.61
343.12 K, 20000 kPa, x2 = 0.2801	704.02
343.12 K, 20000 kPa, x2 = 0.5314	697.62
343.12 K, 20000 kPa, x2 = 0.7736	690.48
343.12 K, 21000 kPa, x2 = 0.2801	704.83
343.12 K, 21000 kPa, x2 = 0.5314	698.47
343.12 K, 21000 kPa, x2 = 0.7736	691.35
343.12 K, 22000 kPa, x2 = 0.2801	705.63
343.12 K, 22000 kPa, x2 = 0.5314	699.29
343.12 K, 22000 kPa, x2 = 0.7736	692.2
343.12 K, 23000 kPa, x2 = 0.2801	706.41
343.12 K, 23000 kPa, x2 = 0.5314	700.11
